This is an account of results in patent publication US20230357272A1, “OCTAHYDROPYRAZINODIAZANAPHTHYRIDINE DIONE COMPOUNDS” (MEDSHINE DISCOVERY INC., priority 2020, published 2023).

One assay has as its system MIA-PA-CA-2 cells. As to the kind of experiment: Anti-proliferation experiment of MIA-PA-CA-2 cells (CellTiter-Glo). Format: cell-based. To be noted: Homo sapiens, MIA PaCa-2, 72 h, 3 days. On the procedure: DMEM culture medium, fetal bovine serum purchased from Biosera, and horse serum purchased from Gibco. CellTiter-Glo (chemiluminescence detection reagent for cell viability) reagent purchased from Promega. MIA-PA-CA-2 cell line purchased from Nanjing CoBioer Biotechnology Co., Ltd. EnVision multi-label analyzer (PerkinElmer).
MIA-PA-CA-2 cells were seeded in a white 96-well plate with 80 μL of cell suspension per well, which contained 1000 MIA-PA-CA-2 cells. The cell plate was incubated overnight in a carbon dioxide incubator.
(§1) The compounds to be tested were diluted 5-fold with a row gun to the eighth concentration, that is, from 2 mM to 26 nM, and a double-duplication experiment was set up. 78 μL of culture medium was added to a middle plate, and then 2 μL of gradient diluted compound per well was transferred to the middle plate according to the corresponding position. After being thoroughly mixed, 20 μL per well was transferred to the cell plate. The concentration range of the compound transferred to the cell plate was 10 μM to 0.13 nM. The cell plate was placed in the carbon dioxide incubator for 3 days. Another cell plate was prepared, and the signal value was read as the maximum value (Max value in the equation below) on the day of administration to participate in data analysis. 25 μL of cell viability chemiluminescence detection reagent was added to each well of the cell plate, and incubated at room temperature for 10 minutes to stabilize the luminescence signal. A multi-label analyzer was used for reading.
Using the equation (Sample−Min)/(Max−Min)*100% to convert the raw data into inhibition rate, and the value of IC50 might be obtained by curve fitting with four parameters (obtained by “log (inhibitor)/response—Variable scope” mode in GraphPad Prism software). Table 2 provides the inhibitory activity of the compounds of the present disclosure on the proliferation of MIA-PA-CA-2 cells.
(ATP-based viability assays read luminescence as a measure of living cells.)

The test system of another assay is NCI-H358 cells. As to the kind of experiment: Anti-proliferation experiment of H358 cells (CellTiter-Glo). It is filed as cell-based. To be noted: Homo sapiens, 120 h, 5 days. On the procedure: RPMI-1640 culture medium, penicillin/streptomycin antibiotics purchased from Wisent, and fetal bovine serum purchased from Biosera. CellTiter-Glo (chemiluminescence detection reagent for cell viability) reagent purchased from Promega. NCI-H358 cell line purchased from the Cell Bank of the Chinese Academy of Sciences. Nivo multi-label analyzer (PerkinElmer).
NCI-H358 cells were seeded in a white 96-well plate with 80 μL of cell suspension per well, which contained 4000 NCI-H358 cells. The cell plate was incubated overnight in a carbon dioxide incubator.
as §1, with “3-fold” for “5-fold”, “ninth” for “eighth”, “304” for “26”, “1.52” for “0.13”, “5” for “3”
25 μL of cell viability chemiluminescence detection reagent was added to each well of the cell plate, and incubated at room temperature for 10 minutes to stabilize the luminescence signal. A multi-label analyzer was used for reading.
Using the equation (Sample−Min)/(Max−Min)*100% to convert the raw data into inhibition rate, and the value of IC50 might be obtained by curve fitting with four parameters (obtained by “log (inhibitor) vs. response—Variable slope” mode in GraphPad Prism). Table 1 provides the inhibitory activity of the compounds of the present disclosure on the proliferation of NCI-H358 cells.

The structures appear in SMILES notation.

Consider `C=CC(=O)N1CCN2c3c(c(=O)n(-c4c(C(C)C)ncnc4C(C)C)c4c(=O)n(-c5c(N)c(Cl)cc(Cl)c5F)c(C(F)(F)F)cc34)OCC[C@H]2C1` [Compound 4], for which the IC50 was 1 nM with MIA-PA-CA-2 cells and 0.9 nM in the assay on NCI-H358 cells.

As for `C=CC(=O)N1CCN2c3c(c(=O)n(-c4c(CC)ncnc4CC)c4c(=O)n(-c5c(N)c(Cl)cc(Cl)c5F)c(C(F)(F)F)cc34)OCC[C@H]2C1` [Compound 5], the IC50 in the assay on MIA-PA-CA-2 cells is 5 nM; in the assay with NCI-H358 cells, 4 nM.

Turning to `C=CC(=O)N1CCN2c3c(c(=O)n(-c4c(CC)cncc4CC)c4c(=O)n(-c5c(N)c(Cl)cc(Cl)c5F)c(C(F)(F)F)cc34)OCC[C@H]2C1` [Compound 6], the IC50 in the assay with MIA-PA-CA-2 cells worked out at 4 nM; with NCI-H358 cells, 2 nM.

Broadly, the IC50 is the concentration that inhibits the measured activity by half.
